Measured values published in article PMC5338256, “D-form KLKLLLLLKLK-NH2 peptide exerts higher antimicrobial properties than its L-form counterpart via an association with bacterial cell wall components” (Scientific Reports, 2017).
Converted amounts (≈) assume the structure as drawn. Read-outs that look alike come from different tables or passages of the source. Non-standard residues stand in square brackets, D forms with d. Residues, ends and D or L forms follow the SMILES beside them. No end group written: not given here.

Assays:
S. aureus [1] = type: cell-based, Staphylococcus aureus (NBRC100910)
Method: (§1) S. aureus (NBRC100910), E. coli W3110 (NBRC12713), E. hirae (NBRC3181), C. albicans (NBRC1385), and S. Typhimurium 14028s (ATCC14028)[2] were used in this study. S. aureus, E. coli, and S. Typhimurium were grown at 37 °C with aeration in Muller-Hinton II medium (BD Biosciences). E. hirae was grown at 37 °C in LB medium (Nacalai Tesque, Inc.) containing 0.5% glucose (w/v). C. albicans was grown at room temperature with aeration in YM medium (BD Biosciences). All experiments were conducted using bacterial cells and C. albicans in the logarithmic-phase of growth.
(§2) Bacterial suspensions in Muller-Hinton II medium were adjusted to an optical density of 550 nm (OD550) = 0.0011. C. albicans suspensions in YM medium were adjusted to OD650 = 0.033. Peptides were serially diluted in 10 mM phosphate buffer (pH 6.0) containing 130 mM sodium chloride, 0.2% bovine serum albumin, and 2.56% dimethyl sulfoxide. The peptide solution (100 μl) was mixed with 100 μl of bacteria or C. albicans suspensions. Bacterial cultures were incubated for one day at 37 °C. C. albicans cultures were incubated for two days at room temperature. Cell growth was monitored optically and the MIC was determined.

S. aureus [2] = assay: Assay for antimicrobial activity (10 min exposure, CFU); type: cell-based, Staphylococcus aureus (NBRC100910); conditions: 10 min at 37 °C, standard assay with culture medium and 0.2% BSA, triplicate plates
Method: as §1
(§3) Bacteria and C. albicans were suspended in growth medium. Peptides suspended in dimethyl sulfoxide were serially diluted in 10 mM phosphate buffer (pH 6.0) containing 130 mM sodium chloride, 0.2% bovine serum albumin as described previously. In order to examine the effects of bovine serum albumin on the assay, 10 mM phosphate buffer (pH 6.0) containing 130 mM sodium chloride, was used for the dilution of peptides. Peptide solution (500 μl) was added to 500 μl of bacteria suspensions and then the mixture was incubated at 37 °C for 10 min. In order to examine the effects of culture medium components on the assay, bacteria suspension was prepared with 10 mM phosphate buffer (pH 6.0) containing 130 mM sodium chloride. Alternatively, 500 μl of peptide solution was added to 500 μl of C. albicans suspensions and the mixture was incubated at room temperature for 10 min. The inhibitory effects of the bacterial components were analyzed by incubating 450 μl of S. aureus suspension with 500 μl of peptide solution plus 50 μl of inhibitor samples at 37 °C for 10 min. Then, the peptide/bacteria suspensions were diluted and plated onto LB agar, LB agar containing 0.5% glucose, or YM agar. After cultivation of the plates, colony forming units (CFU) in the peptide/bacteria suspension were calculated based on the average of triplicate plates.

S. aureus [3] = assay: Assay for membrane permeability (ethidium influx); type: cell-based, Staphylococcus aureus; conditions: 20 μg/ml peptide, fluorescence for 180 sec, 10 mM phosphate buffer pH 6.0, 130 mM NaCl, 0.2% BSA
Method: To examine membrane permeability, ethidium influx rates were examined as previously described. S. aureus suspension cultures were adjusted to an OD600 of 0.4 in 10 mM phosphate buffer (pH 6.0) containing 130 mM sodium chloride and 0.2% bovine serum albumin. Then, peptide in dimethyl sulfoxide (8 μl) or dimethyl sulfoxide alone (8 μl) was added to 2 ml of S. aureus suspensions. At 30 sec after the addition of peptide, ethidium bromide was added to a final concentration of 5 μg/ml, and fluorescence of the ethidium-nucleic acid complex was monitored using a RF-5300PC spectrofluorometer (Shimadzu). Excitation and emission wavelengths were 545 nm with 5 nm slits and 600 nm with 10 nm slits, respectively.

S. aureus [4] = assay: Inhibition of antimicrobial activity by bacterial cell wall components; type: cell-based, Staphylococcus aureus; conditions: Kn2–7 6.25 μg/ml, Mastoparan M 8 μg/ml, 10 min
Method: as §3
Peptidoglycan (120 μg) prepared from S. aureus was added to 1 mg/ml of lysozyme in phosphate buffered saline (150 μl)[33]. Peptidoglycan without lysozyme and lysozyme without peptidoglycan were also prepared as controls. Samples were incubated overnight at 37 °C, and then incubated at 100 °C for 15 min to inactivate lysozyme. For heat-inactivation of peptidoglycan, 600 μg of peptidoglycan suspended in water (300 μl) was incubated at 100 °C for 15 min. The samples were sonicated for 10 sec at setting 1 using a Branson sonifier model S-150D. These samples were used as inhibitor samples for antimicrobial activity assays.

Gram-positive bacteria = conditions: cited from earlier work
From the text: Sapecin B is an antimicrobial peptide that was originally isolated from the culture medium of an embryonic cell line, NIH-Sape-4, derived from Sarcophaga peregrine (flesh fly). […] Two other related proteins, sapecin and sapecin C, were also isolated from culture medium of NIH-Sape-4[13][14][15]. Sapecin B has significant sequence similarity to a scorpion venom toxin, charybdotoxin[13][16]. Structural comparison of sapecin B and charybdotoxin identified the undecapeptide RSLCLLHCRLK-NH2, which corresponds to amino acid residues 7 to 1 ...

E. coli = type: cell-based, Escherichia coli W3110 (NBRC12713); conditions: pH 6
Method: as §1, §2

C. albicans = type: cell-based, Candida albicans (NBRC1385)
Method: as §1, §2

S. aureus [5] = assay: Peptide degradation in the S. aureus assay mixture (SDS-PAGE, Ruby stain); type: in vitro ADME, Staphylococcus aureus; conditions: 15 μg/ml peptide with S. aureus, 10 min at 37 °C, antimicrobial assay mixture, Ruby protein gel stain
[6] = S. aureus, Muller-Hinton II medium mixed 1:1 with peptide in 10 mM phosphate buffer pH 6.0, 130 mM NaCl, 0.2% BSA, 2.56% DMSO, one day at 37 °C, growth monitored optically

CC[C@@H](C)[C@@H](NC(=O)CNC(=O)[C@@H](CO)NC(=O)[C@@H](CC(C)C)NC(=O)[C@H](NC(=O)[C@@H](CCCNC(=N)N)NC(=O)CNC(=O)[C@H](NC(=O)[C@@H](CC(C)C)NC(=O)[C@H]1CCCN1C(=O)[C@@H](CC(C)C)NC(=O)[C@H](N)Cc1ccccc1)[C@H](C)CC)C(C)C)C(=O)N[C@H](CC(C)C)C(N)=O [D-form FLPLIGRVLSGIL-NH2, reference compound] (H-[dF][dL][dP][dL][dI]G[dR][dV][dL][dS]G[dI][dL]-NH2; N-terminus assumed)
MIC (S. aureus [1]; [6]): 8 µg/mL (≈ 5.73 µM)

FIKRIARLLRKIF-NH2 [L-form FIKRIARLLRKIF-NH2, reference compound]
MIC (S. aureus [1]; [6]): 4 µg/mL

CC(C)C[C@@H](NC(=O)[C@H](N)CCCCN)C(=O)N[C@H](CCCCN)C(=O)N[C@H](CC(C)C)C(=O)N[C@H](CC(C)C)C(=O)N[C@H](CC(C)C)C(=O)N[C@H](CCCCN)C(=O)N[C@H](CC(C)C)C(=O)N[C@H](CCCCN)C(N)=O [D-form KLKLLLKLK-NH2] (H-[dK][dL][dK][dL][dL][dL][dK][dL][dK]-NH2; N-terminus assumed)
fold by which the MIC of the D-form is lower than that of the L-form (S. aureus [1]; S. aureus): more than 32 fold | MIC (S. aureus [1]; [6]): 4 µg/mL (≈ 3.65 µM) | antimicrobial activity (CFU), D-form compared with L-form (S. aureus [2]): higher

KLKLLLKLK-NH2 [L-form KLKLLLKLK-NH2]
MIC (S. aureus [1]; [6]): >128 µg/mL

CC[C@@H](C)[C@@H](N)C(=O)N[C@H](CC(N)=O)C(=O)N[C@H](CC(C)C)C(=O)N[C@H](CCCCN)C(=O)N[C@H](C)C(=O)N[C@@H](C(=O)N[C@H](C)C(=O)N[C@H](C)C(=O)N[C@H](CC(C)C)C(=O)N[C@H](C)C(=O)N[C@H](CCCCN)C(=O)N[C@H](CCCCN)C(=O)N[C@H](CC(C)C)C(=O)N[C@H](CC(C)C)C(N)=O)[C@H](C)CC [D-form INLKAIAALAKKLL-NH2, reference compound] (H-[dI][dN][dL][dK][dA][dI][dA][dA][dL][dA][dK][dK][dL][dL]-NH2)
MIC (S. aureus [1]; [6]): 16 µg/mL (≈ 10.8 µM) | ethidium bromide influx rate (S. aureus [3]): increased ethidium bromide influx rates to a similar extent | inhibitory effect of S. aureus peptidoglycan on the antimicrobial activity (S. aureus [4]): weak inhibitory effects

RSLCLLHCRLK-NH2 [undecapeptide, amino acid residues 7 to 17 of sapecin B with C-terminal amidation]
antimicrobial activity (Gram-positive bacteria): significant antimicrobial activity

KLKLLLLLKLK-NH2 [L-form KLKLLLLLKLK-NH2]
MIC (S. aureus [1]; pH 6): 16 µg/mL | MIC (E. coli): 16 µg/mL | MIC (C. albicans): 64 µg/mL | specific degradation of the peptide (S. aureus [5]): specific degradation of the L-form peptide was not observed

INLKAIAALAKKLL-NH2 [L-form INLKAIAALAKKLL-NH2, reference compound]
MIC (S. aureus [1]; [6]): 16 µg/mL

FLPLIGRVLSGIL-NH2 [L-form FLPLIGRVLSGIL-NH2, reference compound]
MIC (S. aureus [1]; [6]): 8 µg/mL

CC[C@@H](C)[C@@H](NC(=O)[C@H](N)Cc1ccccc1)C(=O)N[C@H](CCCCN)C(=O)N[C@H](CCCNC(=N)N)C(=O)N[C@@H](C(=O)N[C@H](C)C(=O)N[C@H](CCCNC(=N)N)C(=O)N[C@H](CC(C)C)C(=O)N[C@H](CC(C)C)C(=O)N[C@H](CCCNC(=N)N)C(=O)N[C@H](CCCCN)C(=O)N[C@@H](C(=O)N[C@H](Cc1ccccc1)C(N)=O)[C@H](C)CC)[C@H](C)CC [D-form FIKRIARLLRKIF-NH2, reference compound] (H-[dF][dI][dK][dR][dI][dA][dR][dL][dL][dR][dK][dI][dF]-NH2; N-terminus assumed)
MIC (S. aureus [1]; [6]): 4 µg/mL (≈ 2.39 µM) | inhibitory effect of S. aureus peptidoglycan on the antimicrobial activity (S. aureus [4]): significant inhibitory effects
